Measured values from patent US6914045B2, “Glycopeptide antibiotics” (Wyeth Holdings Corporation, priority 2001, dated 2005).
Where two headings read alike, the source gives them in different places.

Key:
Experiment in all cases: in vitro antibacterial evaluation, MIC by broth dilution
Type in all cases: cell-based
[1] = test system: Enterococcus sp.
Outline: (§1)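 Step 1: dilute antibiotic across 64-0.06 μg/mL in Muller-Hinton II […]. Step 2: inoculate at 5×10^5 CFU/mL.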

[2] = test system: Streptococcus sp.
Outline: as §1

[3] = test system: Staphylococcus sp.
Outline: as §1

[4] = test system: Escherichia coli
[5] = broth dilution, 18 hours at 35° C.

CC(c1ccccc1)C1NC(=O)CNC(=O)C(CO)NC(=O)C(C(O)C2CNC(=N)N2C2OC(CO)C(O)C(O)C2O)NC(=O)C(C(O)C2CNC(=N)N2)NC(=O)C(Cc2ccc(OC3OC(CO)C(OC4OC5COC(c6ccccc6)OC5C(O)C4O)C(O)C3O)c(I)c2)NC1=O (stereo not shown) [Example 196]
>64 µg/mL: MIC Enterococcus faecalis (ATCC 29212) [1, 5] | MIC Enterococcus faecalis (GC 2242) [1, 5] | MIC Enterococcus faecalis (GC 2691) [1, 5] | MIC Enterococcus faecalis (GC 3059) [1, 5] | MIC Enterococcus faecalis (GC 4552) [1, 5] | MIC Enterococcus faecalis (GC 4554) [1, 5] | MIC Enterococcus faecalis (GC 6189) [1, 5] | MIC Enterococcus faecium (GC 4556) [1, 5] | MIC Enterococcus faecalis (ATCC 29212) ([1]; broth dilution, inoculum 5×10^5 CFU/mL, 18 hours at 35° C., strain ATCC 29212) | MIC Enterococcus faecalis (GC 2242) ([1]; broth dilution, inoculum 5×10^5 CFU/mL, 18 hours at 35° C., strain GC 2242) | MIC Enterococcus faecalis (GC 2691) ([1]; broth dilution, inoculum 5×10^5 CFU/mL, 18 hours at 35° C., strain GC 2691) | MIC Enterococcus faecalis (GC 3059) ([1]; broth dilution, inoculum 5×10^5 CFU/mL, 18 hours at 35° C., strain GC 3059) | MIC Enterococcus faecalis (GC 4552) ([1]; broth dilution, inoculum 5×10^5 CFU/mL, 18 hours at 35° C., strain GC 4552) | MIC Enterococcus faecalis (GC 4554) ([1]; broth dilution, inoculum 5×10^5 CFU/mL, 18 hours at 35° C., strain GC 4554) | MIC Enterococcus faecium (GC 4556) ([1]; broth dilution, inoculum 5×10^5 CFU/mL, 18 hours at 35° C., strain GC 4556) | MIC Enterococcus faecalis (GC 6189) ([1]; broth dilution, inoculum 5×10^5 CFU/mL, 18 hours at 35° C., strain GC 6189) | MIC Streptococcus agalactiae (GC 4564) [2, 5] | MIC Streptococcus agalactiae (GC 4564) ([2]; broth dilution, inoculum 5×10^5 CFU/mL, 18 hours at 35° C., strain GC 4564) | MIC Staphylococcus aureus (GC 1131) ([3]; broth dilution, 18 hours at 35° C., inoculum 5×10^5 CFU/mL, strain GC 1131) | MIC Staphylococcus aureus (ATCC 29213) ([3]; strain ATCC 29213, broth dilution, 18 hours at 35° C.) | MIC Staphylococcus aureus (GC 1131) ([3]; strain GC 1131, broth dilution, 18 hours at 35° C.) | MIC Staphylococcus aureus (GC 3051) ([3]; strain GC 3051, broth dilution, 18 hours at 35° C.) | MIC Staphylococcus aureus (GC 3053) ([3]; strain GC 3053, broth dilution, 18 hours at 35° C.) | MIC Staphylococcus aureus (GC 4542) ([3]; strain GC 4542, broth dilution, 18 hours at 35° C.) | MIC Staphylococcus aureus-SMITH (GC 4543) ([3]; strain GC 4543, broth dilution, 18 hours at 35° C.) | MIC Staphylococcus aureus (GC 4544) ([3]; strain GC 4544, broth dilution, 18 hours at 35° C.) | MIC Coagulase Negative Staphylococcus (GC 4551) ([3]; strain GC 4551, broth dilution, 18 hours at 35° C.)
64 µg/mL: MIC Enterococcus faecalis (GC 4553) [1, 5] | MIC Enterococcus faecium (GC 2243) [1, 5] | MIC Enterococcus faecium (GC 2243) ([1]; broth dilution, inoculum 5×10^5 CFU/mL, 18 hours at 35° C., strain GC 2243) | MIC Enterococcus faecalis (GC 4553) ([1]; broth dilution, inoculum 5×10^5 CFU/mL, 18 hours at 35° C., strain GC 4553) | MIC Streptococcus pneumoniae (ATCC 6301) [2, 5] | MIC Streptococcus pneumoniae (GC 1894) [2, 5] | MIC Streptococcus pneumoniae (GC 4565) [2, 5] | MIC Streptococcus pneumoniae (ATCC 6301) ([2]; broth dilution, inoculum 5×10^5 CFU/mL, 18 hours at 35° C., strain ATCC 6301) | MIC Streptococcus pneumoniae (GC 1894) ([2]; broth dilution, inoculum 5×10^5 CFU/mL, 18 hours at 35° C., strain GC 1894) | MIC Streptococcus pneumoniae (GC 4565) ([2]; broth dilution, inoculum 5×10^5 CFU/mL, 18 hours at 35° C., strain GC 4565) | MIC Staphylococcus aureus (GC 4541) ([3]; strain GC 4541, broth dilution, 18 hours at 35° C.) | MIC Staphylococcus aureus (GC 4545) ([3]; strain GC 4545, broth dilution, 18 hours at 35° C.) | MIC Coagulase Negative Staphylococcus (GC 4548) ([3]; strain GC 4548, broth dilution, 18 hours at 35° C.) | MIC Coagulase Negative Staphylococcus (GC 4549) ([3]; strain GC 4549, broth dilution, 18 hours at 35° C.) | MIC Coagulase Negative Staphylococcus (GC 6257) ([3]; strain GC 6257, broth dilution, 18 hours at 35° C.) | MIC Escherichia coli (ATCC 25922) ([4]; 18 hours at 35° C.) | MIC Escherichia coli (GC 4559) ([4]; 18 hours at 35° C.)
32 µg/mL: MIC Enterococcus avium (GC 4558) [1, 5] | MIC Enterococcus avium (GC 4558) ([1]; broth dilution, inoculum 5×10^5 CFU/mL, 18 hours at 35° C., strain GC 4558) | MIC Streptococcus pyogenes (GC 4563) [2, 5] | MIC Streptococcus pyogenes (GC 4563) ([2]; broth dilution, inoculum 5×10^5 CFU/mL, 18 hours at 35° C., strain GC 4563) | MIC Staphylococcus haemolyticus (GC 4546) ([3]; strain GC 4546, broth dilution, 18 hours at 35° C.) | MIC Coagulase Negative Staphylococcus (GC 4547) ([3]; strain GC 4547, broth dilution, 18 hours at 35° C.)
8 µg/mL: MIC Enterococcus faecium (GC 4557) [1, 5] | MIC Enterococcus faecium (GC 4557) ([1]; broth dilution, inoculum 5×10^5 CFU/mL, 18 hours at 35° C., strain GC 4557) | MIC Escherichia coli (GC 4560) ([4]; 18 hours at 35° C.)

Cyclo[3-[[2-(2,3,4,6-tetra-O-benzoylhexopyranosyl)amino]-1,3-benzoxazol-5-yl]alanyl-3-(2-iminoimidazolidin-4-yl)seryl-3-(3-hexopyranosyl-2-iminoimidazolidin 4-yl)seryl-serylglycyl-β-methylphenylalanyl] [Example 44]
>64 µg/mL: MIC Escherichia coli (ATCC 25922) [4] | MIC Escherichia coli (GC 4559) [4]
4 µg/mL: MIC Enterococcus avium (GC 4558) [1] | MIC Streptococcus pyogenes (GC 4563) [2]
16 µg/mL: MIC Enterococcus faecalis (ATCC 29212) [1] | MIC Enterococcus faecalis (GC 2242) [1] | MIC Enterococcus faecalis (GC 2691) [1] | MIC Enterococcus faecalis (GC 4552) [1] | MIC Enterococcus faecalis (GC 6189) [1] | MIC Streptococcus agalactiae (GC 4564) [2] | MIC Streptococcus pneumoniae (GC 1894) [2] | MIC Coagulase Negative Staphylococcus (GC 4551) [3] | MIC Staphylococcus aureus (GC 4544) [3] | MIC Staphylococcus aureus (GC 4545) [3]
2 µg/mL: MIC Coagulase Negative Staphylococcus (GC 4549) [3]
32 µg/mL: MIC Enterococcus faecalis (GC 3059) [1] | MIC Enterococcus faecalis (GC 4554) [1] | MIC Enterococcus faecium (GC 4556) [1] | MIC Streptococcus pneumoniae (GC 4565) [2] | MIC Staphylococcus aureus (GC 3053) [3] | MIC Staphylococcus aureus-SMITH (GC 4543) [3]
8 µg/mL: MIC Enterococcus faecalis (GC 4553) [1] | MIC Enterococcus faecium (GC 2243) [1] | MIC Enterococcus faecium (GC 4557) [1] | MIC Streptococcus pneumoniae (ATCC 6301) [2] | MIC Coagulase Negative Staphylococcus (GC 4548) [3] | MIC Coagulase Negative Staphylococcus (GC 6257) [3]
64 µg/mL: MIC Coagulase Negative Staphylococcus (GC 4547) [3] | MIC Staphylococcus aureus (ATCC 29213) [3] | MIC Staphylococcus aureus (GC 1131) [3] | MIC Staphylococcus aureus (GC 3051) [3] | MIC Staphylococcus aureus (GC 4541) [3] | MIC Staphylococcus aureus (GC 4542) [3] | MIC Staphylococcus haemolyticus (GC 4546) [3] | MIC Escherichia coli (GC 4560) [4]
